Active and inactive are the calls of the source.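 How the source made its calls: active means mean IC50 for reducing PEG3 promoter reporter signal at or below a set limit, with IC50 above the limit in both counter screens; inactive means the rest, including counter screen hits.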
Assays:
[1] = Peg3 promoter luciferase inhibitors, potency, dose response, cell-based, HeLa, CREF/GAPDH counter-screen panel (AID 624167); details: CREF/GAPDH counter-screens; GAPDH; mean of runs
Rat fibroblasts (CREF) = test: as above; details: CREF/GAPDH counter-screens
PEG-3 [2] = target: PEG-3 (UniProt Q6IN02); test: as above; details: HeLa PEG-Prom luciferase reporter, overnight, CREF/GAPDH counter-screens, mean of runs
Sequence of PEG-3 (UniProt Q6IN02) (Q6IN02 whole entry, looked up): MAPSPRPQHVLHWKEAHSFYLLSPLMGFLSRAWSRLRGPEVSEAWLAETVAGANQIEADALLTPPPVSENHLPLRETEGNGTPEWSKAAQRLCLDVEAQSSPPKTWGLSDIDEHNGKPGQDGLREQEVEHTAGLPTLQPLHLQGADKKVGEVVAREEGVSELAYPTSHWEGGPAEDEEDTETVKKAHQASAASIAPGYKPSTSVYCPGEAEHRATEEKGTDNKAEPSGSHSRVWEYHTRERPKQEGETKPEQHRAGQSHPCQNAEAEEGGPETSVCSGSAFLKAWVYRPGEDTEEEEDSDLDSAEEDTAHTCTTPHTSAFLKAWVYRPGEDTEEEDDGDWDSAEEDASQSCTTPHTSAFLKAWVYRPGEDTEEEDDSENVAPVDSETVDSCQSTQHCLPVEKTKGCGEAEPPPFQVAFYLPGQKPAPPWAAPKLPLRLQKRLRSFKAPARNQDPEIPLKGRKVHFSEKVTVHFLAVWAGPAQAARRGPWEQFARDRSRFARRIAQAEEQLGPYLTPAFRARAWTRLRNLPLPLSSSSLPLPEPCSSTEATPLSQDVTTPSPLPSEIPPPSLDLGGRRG

GAPDH = test: as above; details: CREF/GAPDH counter-screens
PEG-3 [3] = test: as above; details: HeLa PEG-Prom luciferase reporter, overnight, CREF/GAPDH counter-screens
[4] = run 1, dose range 1, individual replicate IC50 per panel
[5] = run 2, dose range 1, individual replicate IC50 per panel

| SMILES | IC50 [1] | IC50 (Rat fibroblasts (CREF); mean of runs) [µM] | IC50 (Rat fibroblasts (CREF); [4]) [µM] | IC50 (Rat fibroblasts (CREF); [5]) [µM] | IC50 (PEG-3 [2]) | IC50 (GAPDH; [4]) [µM] | IC50 (GAPDH; [5]) [µM] | IC50 (PEG-3 [3]; [4]) [µM] | IC50 (PEG-3 [3]; [5]) [µM] |
| --- | --- | --- | --- | --- | --- | --- | --- | --- | --- |
| COc1ccc(/C=C2/CCCC(CN(C)C)C2=O)cc1 (centres undefined) | inactive | 28.8 | 23.6 | 34 | 9.68 µM | 38.2 | 23.9 | 11.3 | 8.07 |
| c1ccc(-c2nc(-c3ccccn3)no2)cc1 | – | 2.98 | 3.18 | 2.79 | inactive | – | – | 6.25 | > 100 |
| O=C(Cn1ncc(Cl)c(Cl)c1=O)N1CCc2ccccc21 | – | 14.3 | 18.5 | 10 | 8.73 µM | – | – | 10.1 | 7.38 |
| O=C(Nc1nc2cc3c(cc2s1)OCO3)C1=COCCO1 | – | 2.29 | 1.92 | 2.66 | 1.97 µM | – | – | 1.68 | 2.25 |
| COC(=O)c1c(N)sc(C(=O)NCCc2ccccc2)c1C | – | 3.88 | 4.38 | 3.38 | 2.46 µM | – | – | 2.22 | 2.69 |
| Cc1cnc(NC(=O)c2ccc3c(c2)OCCO3)s1 | – | 0.454 | 0.378 | 0.53 | inactive | – | – | 0.647 | > 100 |
| O=C(NCCc1ccccc1)c1ccc2c(c1)OCCO2 | – | 1.73 | 1.36 | 2.1 | 0.636 µM | – | – | 0.646 | 0.625 |
| Brc1ccc(N/N=C(/N=Nc2nn[nH]n2)c2ccccc2)cc1 | – | 10.2 | 10 | 10.4 | 1 µM | – | – | 0.76 | 1.25 |
| O=C(Nc1nc2ccccc2[nH]1)c1ccccc1F | – | 1.47 | 1.26 | 1.68 | 1.26 µM | – | – | 1.13 | 1.4 |
| Cc1c([N+](=O)[O-])cc(N2C(=O)C=CC2=O)cc1[N+](=O)[O-] | – | 17.2 | 16.8 | 17.6 | 8.22 µM | – | – | 9.19 | 7.25 |
| Cc1cc(C)c2c(N)c(C(=O)Nc3ncc(C)s3)sc2n1 | – | 3.32 | 2.88 | 3.76 | 1.67 µM | – | – | 1.09 | 2.26 |
| Cc1csc(NC(=O)c2ccc(N3CCCC3=O)cc2)n1 | – | 4.51 | 2.85 | 6.17 | 5.93 µM | – | – | 5.34 | 6.53 |
| Cc1cc(C(=O)COC(=O)c2ccccc2O)c(C)n1CC1CCCO1 (centres undefined) | – | 3.39 | 3.34 | 3.44 | inactive | – | – | 1.24 | > 100 |
| COC(=O)c1nn(-c2ccc3c(c2)CCN3C(C)=O)cc1O | – | 4.48 | 5.01 | 3.95 | 4.81 µM | – | – | 3.93 | 5.69 |
| COc1cccc(-c2sc3ccccc3c2-c2ccc(OCCN(C)C)cc2)c1 | – | 14.4 | 14.6 | 14.2 | 8.8 µM | – | – | 10 | 7.61 |
| O=C(NC(=O)c1ccccc1)Nc1ccccn1 | – | 0.751 | 0.676 | 0.825 | 1.57 µM | – | – | 1.25 | 1.88 |
| CC1CCCN(c2ncnc3c2cnn3-c2ccc(Cl)cc2)C1 (centres undefined) | – | 1.98 | 1.79 | 2.17 | 7.2 µM | – | – | 6 | 8.4 |
| CN(C)c1ccc(/C=C/c2ccc3c4ccccc4ccc3[n+]2-c2ccccc2)cc1 | – | 17.8 | 16.9 | 18.7 | 10 µM | – | – | 10.5 | 9.52 |
| O=C(/C=C/Nc1ccccc1Br)c1ccccn1 | – | 0.506 | 0.414 | 0.599 | 1.1 µM | – | – | 0.895 | 1.31 |
| CCC1(OC(=O)CN)C(=O)OCc2c1cc1n(c2=O)Cc2cc3ccccc3nc2-1 (centres undefined) | – | 1.38 | 1.07 | 1.69 | 3.34 µM | – | – | 3.8 | 2.88 |
| Cc1nc(-c2ccc(NC(=O)c3ccco3)cc2)cs1 | – | 0.433 | 0.43 | 0.436 | 1.54 µM | – | – | 1.39 | 1.69 |
| C[C@@H]1C[C@@H]([C@H](O)CC2CC(=O)NC(=O)C2)C(=O)[C@@H](C)C1 | – | 8.14 | 1.85 | 14.4 | 1.01 µM | – | – | 1.65 | 0.373 |
| CCOc1ccc(NC(=O)c2ccccn2)cc1 | – | 1.28 | 0.921 | 1.65 | 3.46 µM | – | – | 2.89 | 4.04 |

| SMILES | IC50 [1] | IC50 (Rat fibroblasts (CREF); mean of runs) [µM] | IC50 (Rat fibroblasts (CREF); [4]) [µM] | IC50 (Rat fibroblasts (CREF); [5]) [µM] | IC50 (PEG-3 [2]) | IC50 (GAPDH; [4]) [µM] | IC50 (GAPDH; [5]) [µM] | IC50 (PEG-3 [3]; [4]) [µM] | IC50 (PEG-3 [3]; [5]) [µM] |
| --- | --- | --- | --- | --- | --- | --- | --- | --- | --- |
| Nc1ccc(-c2nc3ccc(C(=O)O)cc3s2)cc1 | – | 6.03 | 6.25 | 5.81 | 0.363 µM | – | – | 0.44 | 0.286 |
| COc1ccc(CCN2C(=O)C=CC2=O)cc1OC | – | 7.92 | 6.39 | 9.45 | 8.69 µM | – | – | 10 | 7.39 |
| COC1=C(Br)C(=O)c2ncccc2C1=O | – | 14.2 | 8.91 | 19.4 | 6.65 µM | – | – | 8.01 | 5.3 |
| O=C(Nc1ccccn1)c1cc2ccccc2o1 | – | 1.82 | 1.35 | 2.29 | 4.54 µM | – | – | 5.06 | 4.01 |
| O=C(/C=C/c1ccccc1)Nc1cccc(C(=O)O)c1 | – | 5.31 | 4.02 | 6.6 | 2.22 µM | – | – | 1.79 | 2.64 |
| O=C(Nc1cccc(C(=O)O)c1)Nc1ccc2c(c1)OCO2 | – | 17.4 | 14.2 | 20.7 | 8.34 µM | – | – | 3.5 | 13.2 |
| Cc1ccccc1OCC(O)CNC1CCC(NCC(O)COc2ccccc2C)CC1 (centres undefined) | – | 10.8 | 8.94 | 12.6 | 7.15 µM | – | – | 9.8 | 4.49 |
| CC(=O)n1cc(N(C(=O)CCl)c2ccc(C)cc2)c2ccccc21 | – | 3.96 | 5.38 | 2.53 | 9.36 µM | – | – | 11.3 | 7.38 |
| CC(=O)Nc1ccc(NC(=O)c2nc(S(=O)(=O)Cc3cccc(C)c3)ncc2Cl)cc1 | – | 6.67 | 4.5 | 8.85 | 7.65 µM | – | – | 9.47 | 5.84 |
| NC(Cc1ccc(F)cc1)c1csc(Nc2cc(Oc3ccccc3)ncn2)n1 (centres undefined) | – | 17.2 | 21.3 | 13.1 | 10.2 µM | – | – | 13.2 | 7.16 |
| O=C(c1ccc(Cl)cc1)N1CCCCC(Sc2nnc(-c3ccc4c(c3)OCO4)o2)C1=O (centres undefined) | – | 2.25 | 3.87 | 0.643 | 2.29 µM | – | – | 0.669 | 3.91 |
| CCOC(=O)c1cnc(Nc2nc3ccccc3o2)nc1C | – | 1.32 | 1.27 | 1.37 | 1.75 µM | – | – | 1.17 | 2.33 |
| CC1CCN(c2ccc(-c3cccc(NC(=O)C(F)(F)F)c3)nn2)CC1 | – | 0.853 | 0.869 | 0.837 | 2.11 µM | – | – | 1.84 | 2.37 |
| O=C(CCl)Nc1ccccc1Sc1ccc(Cl)cc1 | – | 8.11 | 8.04 | 8.18 | 10.1 µM | – | – | 13 | 7.06 |
| O=C1CCCCC1Sc1nnc(-c2ccc3c(c2)OCO3)o1 (centres undefined) | – | 7.83 | 8.19 | 7.46 | 1.7 µM | – | – | 1.69 | 1.71 |
| O=C(CN1C(=O)c2ccccc2S1(=O)=O)c1ccc2c(c1)OCCCO2 | – | 1.28 | 1.07 | 1.48 | 0.59 µM | – | – | 0.77 | 0.411 |
| Cc1ccc(-c2cn3cc(C)ccc3n2)cc1 | – | 1.28 | 1.01 | 1.54 | 0.722 µM | – | – | 0.729 | 0.715 |
| COc1ccccc1C(=O)Nc1nc2ccccc2s1 | – | 0.489 | 0.348 | 0.631 | 0.574 µM | – | – | 0.515 | 0.633 |
| Cc1ccc(-n2[nH]c(=O)c(-c3ccccn3)c2C)cc1 | – | 11.2 | 7.32 | 15 | 3 µM | – | – | 2.62 | 3.38 |
| CCOC(=O)Cc1csc(NC(=S)NC(=O)c2ccc(Cl)cc2)n1 | – | 4.97 | 4.16 | 5.77 | 5.62 µM | – | – | 7.55 | 3.68 |
| O=c1cc(-c2ccc(O)cc2)oc2ccc3ccccc3c12 | – | 1.23 | 0.883 | 1.57 | 4.08 µM | – | – | 4.65 | 3.52 |
| O=C1c2cccc3cc([N+](=O)[O-])cc(c23)C(=O)N1CCN1CCCC1 | – | 4.66 | 4.17 | 5.15 | 5.57 µM | – | – | 6.2 | 4.94 |
| CC(C)Cc1ccc(C(C)C(N)=NCCc2ccccc2)cc1 (centres undefined) | – | 13.3 | 15 | 11.6 | 9.7 µM | – | – | 12.2 | 7.19 |
